For one data set, the system named is dengue virus type 1. The experiment in a line: Antiviral activity against DENV1 MY97-10245 infected in human A549 cells assessed as decrease in envelope protein production after 48 hrs by immunodetection method. Type of data set: functional, cell-based. Conditions: MY97-10245, A549, 48 h.
The subject of another data set is dengue virus type 4. In words: Antiviral activity against DENV4 MY01-22713 infected in human A549 cells assessed as decrease in envelope protein production after 48 hrs by immunodetection method. Type of data set: functional, cell-based. As to conditions: MY01-22713, A549, 48 h.
A short description of data set [1]: Cytotoxicity against human HepG2 cells. The format is cell-based.
Another data set relates to dengue virus type 3. The experiment in a line: Antiviral activity against DENV3 MY05-34640 infected in human A549 cells assessed as decrease in envelope protein production after 48 hrs by immunodetection method. Type of data set: functional, cell-based. Conditions: MY05-34640, A549, 48 h.
For a further data set, the system named is dengue virus type 2. In words: Antiviral activity against DENV2 MY97-10340 infected in human A549 cells assessed as decrease in envelope protein production after 48 hrs by immunodetection method. Conditions: MY97-10340, A549, 48 h. Type of data set: functional, cell-based.
Data set [2] can be described thus: Intrinsic clearance in human liver microsomes. As to conditions: read-out: CLH. The format is ADME, microsome. A general note: Liver microsomes are vesicles of endoplasmic reticulum, rich in cytochrome P450 enzymes.
Data set [3] is described as follows: Solubility of the compound at pH 6.8. The format is physicochemical. Conditions: buffer.
The nature of data set [4]: Lipophilicity, log D of the compound at pH 7.4. Type of data set: physicochemical. As to conditions: buffer.

The EC50 is the midpoint of the concentration-response curve. As usually defined, the CC50 is the concentration at which the toxic effect on the cells reaches its halfway point. As usually defined, the solubility is how much of the substance goes into solution per volume. Higher therefore signals a readily soluble substance. For orientation: logD means lipophilicity at a set pH, counting ionised and neutral species. High values mean a more lipophilic compound, low ones a more hydrophilic compound.

Each structure is given as a SMILES string. Values after ≈ are worked out from the molar mass of the structure shown.

On to `CSc1cccc(NC(=O)c2cc3ccc(C(F)(F)F)cc3n2CC(C)C(=O)NC2CCCC2)c1` (stereo not drawn), for which the EC50 with dengue virus type 1 amounted to 5100 nM; in the data set with dengue virus type 4, 2000 nM; with dengue virus type 3, 3900 nM; with dengue virus type 2 it was 10000 nM. For the same compound, it took 7100 nM to reach half-maximal cytotoxicity in data set [1] (CC50).
In the same order, the values of `CSc1cccc(N2C(=O)c3cc4ccc(C(F)(F)F)cc4n3C[C@]2(C)C(=O)NC2CCCC2)c1` are 5500 nM, 1500 nM, 600 nM, 5100 nM and 20000 nM.
The corresponding values for `O=C(NCC1CC1)C1CN(c2ccccc2)CC(=O)N1c1ccc2ccsc2c1` (stereo not drawn) are 6200 nM, 600 nM, 200 nM, 2200 nM and over 50000 nM.
In the same order, the values of `CSc1cccc(N2C(=O)CN(c3cccnc3)CC2C(=O)NC2CCCC2)c1` (stereo not drawn) are over 50000 nM, 45000 nM, 31000 nM, over 50000 nM and over 50000 nM.
In the case of `NC(=O)c1cccc(NC(=O)C2CN(c3ccccc3)CC(=O)N2c2ccc3ccsc3c2)c1` (stereo not drawn), the EC50 in the data set on dengue virus type 1 stood at 2000 nM; with dengue virus type 4, 1900 nM; in the data set on dengue virus type 3, 130 nM; with dengue virus type 2, 1500 nM. The same compound registered a cytotoxic concentration (CC50) in data set [1] of over 50000 nM.
Take `COc1cccc(N2CC(=O)N(c3cccc(SC)c3)C(C(=O)NC3CCCC3)C2)c1` (stereo not drawn): the EC50 in the data set with dengue virus type 1 came to 2900 nM; in the data set on dengue virus type 4 it was 2400 nM; in the data set on dengue virus type 3, 1600 nM; in the data set on dengue virus type 2, 5400 nM. The CC50 in data set [1] was over 50000 nM.
In the same order, the values of `O=C(NC1CCCC1)C1CN(c2cccc(C(F)(F)F)c2)CC(=O)N1c1cccc(OC(F)(F)F)c1` (stereo not drawn) are 1100 nM, 700 nM, 400 nM, 1700 nM and 8000 nM.
The corresponding values for `CSc1cccc(N2C(=O)CN(c3ccc(C(F)(F)F)cc3)CC2C(=O)NC2CCCC2)c1` (stereo not drawn) are 500 nM, 200 nM, 200 nM, 600 nM and 10000 nM.
Regarding `CSc1cccc(N(C(=O)c2cc3ccc(C(F)(F)F)cc3[nH]2)[C@H](C)C(=O)NC2CCCC2)c1`, the EC50 came to 5300 nM with dengue virus type 1, 2600 nM in the data set with dengue virus type 4, 2500 nM with dengue virus type 3 and 3600 nM in the data set on dengue virus type 2. Moreover, in data set [1], the CC50 was determined as 15000 nM.
The corresponding values for `O=C(NC1CCCC1)[C@H]1CN(c2ccc(C(F)(F)F)cc2)CC(=O)N1c1ccc2ccsc2c1` are 6900 nM, 2600 nM, 2600 nM, 5700 nM and 10000 nM.
For the compound `CSc1cccc(N2C(=O)c3cc4ccc(C(F)(F)F)cc4n3CC2(C)C(=O)NC2CCCC2)c1` (stereo not drawn), the EC50 in the data set with dengue virus type 1 was found to be 80 nM; in the data set with dengue virus type 4, 170 nM; in the data set with dengue virus type 3, 50 nM; with dengue virus type 2, 200 nM. The compound also had a CC50 in data set [1] of over 50000 nM.
Regarding `O=C(Nc1cccnc1)C1CN(c2ccccc2)CC(=O)N1c1ccc2ccsc2c1` (stereo not drawn), the EC50 was 5600 nM with dengue virus type 1, 1700 nM in the data set on dengue virus type 4, 500 nM in the data set with dengue virus type 3 and 2700 nM in the data set on dengue virus type 2. The same compound yielded a CC50 in data set [1] of over 50000 nM.
In the same order, the values of `O=C(NC1CCCC1)C1CN(c2ccc(C(F)(F)F)cc2)CC(=O)N1c1ccc2ccsc2c1` (stereo not drawn) are 200 nM, 100 nM, 80 nM, 300 nM and 10000 nM.
The corresponding values for `CSc1cccc(N2C(=O)CN(c3ccccc3)CC2(C)C(=O)NC2CCCC2)c1` (stereo not drawn) are 4000 nM, 2500 nM, 1300 nM, 11000 nM and over 50000 nM.
For `CSc1cccc(N2C(=O)c3cc4ccc(C(F)(F)F)cc4n3C[C@@]2(C)C(=O)NC2CCCC2)c1`, in data set [2], the microsomal CLint was over 735 µL/min/mg. Moreover, the concentration giving a half-maximal response (EC50) with dengue virus type 1 turned out to be 40 nM; in the data set with dengue virus type 4, 50 nM; in the data set with dengue virus type 3, 10 nM; in the data set on dengue virus type 2, 90 nM. For the same compound, the solubility in data set [3] is under 4 µM. In data set [1], the CC50 came to 20000 nM. The same compound registered a logD in data set [4] of over 4.5.
For `CSc1cccc(N(CC(=O)NC2CCCC2)C(=O)c2cc3ccc(C(F)(F)F)cc3n2C)c1`, the concentration giving a half-maximal response (EC50) was found to be 3100 nM in the data set on dengue virus type 1, 1500 nM in the data set on dengue virus type 4, 2300 nM in the data set with dengue virus type 3 and 3000 nM with dengue virus type 2. Also, it took 6300 nM to reach half-maximal cytotoxicity in data set [1] (CC50).
As for `O=C(NC1CCCC1)C1CN(c2ccc(C(F)(F)F)cc2)CC(=O)N1c1cnc2ccsc2c1` (stereo not drawn), the EC50 turned out to be 500 nM with dengue virus type 1, 400 nM in the data set on dengue virus type 4, 300 nM in the data set on dengue virus type 3 and 900 nM in the data set on dengue virus type 2. In addition, in data set [1], the midpoint of cytotoxicity, the CC50, lay at 30000 nM.
For the compound `CSc1cccc(N2C(=O)CN(c3cncc(C(F)(F)F)c3)CC2C(=O)NC2CCCC2)c1` (stereo not drawn), the EC50 in the data set with dengue virus type 1 was over 50000 nM; with dengue virus type 4, 28000 nM; in the data set on dengue virus type 3, 13000 nM; with dengue virus type 2, over 50000 nM. Moreover, the CC50 in data set [1] was over 50000 nM.
For `O=C(NC1CCCC1)C1CN(c2ccccc2)CC(=O)N1c1ccc2ccsc2c1` (stereo not drawn), the EC50 stood at 2400 nM in the data set on dengue virus type 1, 900 nM in the data set with dengue virus type 4, 170 nM in the data set with dengue virus type 3 and 1500 nM in the data set on dengue virus type 2. The compound also came in with a 50% cytotoxic concentration (CC50) in data set [1] of over 50000 nM.
The corresponding values for `CC(=O)c1cccc(N2C(=O)CN(c3cccc(C(F)(F)F)c3)CC2C(=O)NC2CCCC2)c1` (stereo not drawn) are 7100 nM, 6300 nM, 2200 nM, 10000 nM and 40000 nM.
On to `CSc1cccc(N2C(=O)CN(c3cccc(C(F)(F)F)c3)CC2C(=O)NC2CCCC2)c1` (stereo not drawn), for which the EC50 with dengue virus type 1 is 700 nM; in the data set with dengue virus type 4 it was 600 nM; with dengue virus type 3, 300 nM; with dengue virus type 2, 1000 nM. The same compound came in with a solubility in data set [3] of 4 µM (≈ 1.91 µg/mL). Further, in data set [1], half-maximal cytotoxicity (CC50) was put at 20000 nM.
In the case of `O=C(NC1CCCC1)[C@@H]1CN(c2ccc(C(F)(F)F)cc2)CC(=O)N1c1ccc2ccsc2c1`, in data set [2], the microsomal CLint came out at 59 µL/min/mg. Besides, the EC50 in the data set with dengue virus type 1 is 70 nM; in the data set on dengue virus type 4, 30 nM; in the data set with dengue virus type 3 it was 30 nM; with dengue virus type 2 it was 100 nM. For the same compound, in data set [3], the solubility is under 4 µM. In data set [1], this compound gave a CC50 of 20000 nM. In data set [4], this compound gave a logD of over 4.5.
In the case of `O=C(NC1CCC1)C1CN(c2ccccc2)CC(=O)N1c1ccc2ccsc2c1` (stereo not drawn), the concentration giving a half-maximal response (EC50) was 1800 nM in the data set on dengue virus type 1, 200 nM in the data set on dengue virus type 4, 50 nM in the data set on dengue virus type 3 and 1000 nM in the data set on dengue virus type 2. This compound gave a CC50 in data set [1] of over 50000 nM.
For the compound `CSc1cncc(N2C(=O)CN(c3cccc(C(F)(F)F)c3)CC2C(=O)NC2CCCC2)c1` (stereo not drawn), the EC50 was found to be 400 nM with dengue virus type 1, 600 nM in the data set with dengue virus type 4, 200 nM in the data set on dengue virus type 3 and 1200 nM with dengue virus type 2. Moreover, in data set [3], the solubility came out at 40 µM (≈ 19.1 µg/mL). Moreover, in data set [1], the midpoint of cytotoxicity, the CC50, lay at 26000 nM.
Regarding `CSc1cccc(N2C(=O)c3ccc(-c4ccco4)n3CC2(C)C(=O)NC2CCCC2)c1` (stereo not drawn), the EC50 in the data set with dengue virus type 1 is 320 nM; with dengue virus type 4 it was 420 nM; in the data set with dengue virus type 3, 90 nM; with dengue virus type 2, 500 nM. This compound also returned a CC50 in data set [1] of over 50000 nM.
The corresponding values for `CSc1cccc(N2C(=O)CN(c3cc(C(F)(F)F)ccc3C)CC2C(=O)NC2CCCC2)c1` (stereo not drawn) are 6100 nM, 5800 nM, 6500 nM, 8000 nM and 10000 nM.
Take `N#Cc1cccc(NC(=O)C2CN(c3ccccc3)CC(=O)N2c2ccc3ccsc3c2)c1` (stereo not drawn): the EC50 in the data set with dengue virus type 1 was 2800 nM; with dengue virus type 4, 1200 nM; in the data set with dengue virus type 3, 90 nM; in the data set on dengue virus type 2, 2000 nM. In data set [1], this compound showed a CC50 of over 50000 nM.
In the same order, the values of `CC(F)(F)c1cccc(N2C(=O)CN(c3cccc(C(F)(F)F)c3)CC2C(=O)NC2CCCC2)c1` (stereo not drawn) are 1900 nM, 800 nM, 400 nM, 2200 nM and 9000 nM.
Take `CSc1cccc(N2C(=O)CN(c3ccccc3)CC2C(=O)NC2CCCC2)c1` (stereo not drawn): the EC50 was 2000 nM with dengue virus type 1, 2000 nM in the data set on dengue virus type 4, 800 nM in the data set with dengue virus type 3 and 11000 nM with dengue virus type 2. In data set [1], this compound yielded a CC50 of over 50000 nM.
As to `CSc1cccc(N(C(=O)c2cc3ccc(C(F)(F)F)cc3[nH]2)[C@@H](C)C(=O)NC2CCCC2)c1`, the EC50 was determined as 2200 nM with dengue virus type 1, 1500 nM in the data set with dengue virus type 4, 2000 nM with dengue virus type 3 and 1700 nM in the data set with dengue virus type 2. For the same compound, in data set [1], the CC50 amounted to 7100 nM.
Take `O=C(NC1CCCC1)C1CN(c2ccc(C(F)(F)F)cc2)CC(=O)N1c1ccc2ccoc2c1` (stereo not drawn): the EC50 is 800 nM with dengue virus type 1, 500 nM in the data set with dengue virus type 4, 400 nM with dengue virus type 3 and 1000 nM in the data set on dengue virus type 2. Also, in data set [1], the CC50 is 20000 nM.
The corresponding values for `CSc1cccc(N2C(=O)CN(c3cccc(C#N)c3)CC2C(=O)NC2CCCC2)c1` (stereo not drawn) are 4100 nM, 2500 nM, 1700 nM, 7400 nM and over 50000 nM.

For the origin of these results see ChEMBL document CHEMBL3997825, “Discovery of 2-oxopiperazine dengue inhibitors by scaffold morphing of a phenotypic high-throughput screening hit” (Bioorg Med Chem Lett, 2017).
